# Legend:
# [1] = system: PTZ-kindled mice; test: Behavioral tests in PTZ-kindled mice (locomotor activity, elevated plus maze, forced swim test); format: in vivo
# Experimental: As compared to the nonkindled control group, there were no changes in locomotor activity, as well as anxiety- and depressive-like behavior in the PTZ-kindled control group.
# (§1) The procedure was performed as described in detail in our earlier studies.[15],[65] […] The seizure severity was scored using the modified Racine’s scale. […] 24 h after the last PTZ injection, animals were subjected to the locomotor activity test, the elevated plus maze test, and the forced swim test according to the methods described in detail elsewhere. After behavioral tests, animals were sacrificed and the brains were rapidly removed. Hippocampi and cortices were dissected, frozen, and stored at −80 °C until the assay of determination of GABA and glutamate concentration.
# Figure S1. Acute effects of compound 26 (A) and 28 (B) on grip strength in mice. Both compounds were administered i.p. at a dose of 50 mg/kg, 30 min before the test. Control animals received vehicle. Data are presented as means ± SEM of grip strength expressed in mN/g of body weight (n = 10animals). The statistical significance was evaluated by a Student's t test (GraphPad Prism 8). […]
# entries in the elevated plus maze test; (B) the percentage of the time spent in the open arms in the elevated plus maze test; (C) spontaneous locomotor activity; (D) total immobility duration in the forced swim test in mice subjected to the PTZ kindling procedure. PTZ (40 mg/kg, i.p.) was given three times a week, 30 min after […]
# Behavioral tests were performed 24 h after the last PTZ injection. Data are shown as means ± SEM (n = 10–15 animals). The statistical significance was evaluated by one-way ANOVA followed by the Tukey’s post hoc test: *p < 0.05, (GraphPad Prism 8). […]
# [2] = system: mice; test: PTZ-induced kindling; format: in vivo; settings: for percentage of fully kindled mice: PTZ 40 mg/kg; for mean seizure severity score: 40 mg/kg
# Experimental: The percentage of fully kindled mice in the control group was 77%. […] These slight differences were not statistically significant as compared to the PTZ control group.
# Data are shown as means of seizure severity ± SEM (n = 13–15 animals). The statistical significance was evaluated by a mixed-effect model for repeated measures followed by Tukey’s post hoc test: *p < 0.05, **p < 0.01, ***p < 0.001, and ****p < 0.0001 as compared to the control group (GraphPad Prism 8).
# as §1
# The mean seizure severity scores were calculated for all experimental groups after each PTZ injection and analyzed using a mixed-effect model for repeated measures with Tukey’s post hoc test. Fisher’s exact probability test was used to compare the percentage of fully kindled mice.
# [3] = system: glutamate and GABA concentrations in the hippocampus and cortex; test: Glutamate and GABA concentrations in hippocampus and cortex of PTZ-kindled mice (LC-MS/MS); format: in vivo
# Description: After completion of behavioral tests, animals were sacrificed and the brains were collected for the analysis of glutamate and GABA concentrations in the hippocampus and cortex. No changes in glutamate and GABA concentrations were reported in the hippocampus (Figure 4A). However, statistically significant differences in the concentration of both glutamate and GABA (Figure 4B) were found in the cortex. The FST procedure increased cortical glutamate concentrations in this brain structure as compared to naive mice (p < 0.05), whereas PTZ-induced kindling caused a ∼30% decrease in glutamate concentrations in comparison to the nonkindled control group exposed to the FST test (p < 0.0001).
# Concentrations of GABA and glutamate in the mouse prefrontal cortex and hippocampus were measured by the liquid chromatography-tandem mass spectrometry (LC-MS/MS) method. Standards of both analytes were purchased from Toronto Research Chemicals Inc. (Toronto, ON, Canada). The stock standard solutions of GABA and glutamate were prepared in methanol and deionized water, respectively, and stored at 4 °C. A series of solution mixtures of desired concentrations were prepared by suitable dilutions of the stock solutions. Before analysis, murine brains were homogenized in distilled water at the ratio of 50 μL/mg using a handheld pestle and a glass tube homogenizer (Potter–Elvehjem PTFE pestle and glass tube, Sigma-Aldrich). Homogenates were centrifuged at 8000g for 10 min at 4 °C, and the supernatant was diluted 10 times with 0.1% formic acid in MeCN. After addition of isotope-labeled GABA-d6 and glutamate-d5 (Toronto Research Chemicals Inc., Toronto, ON, Canada) as internal standards (10 μL at a concentration of 500 ng/mL), samples (10 μL) were deproteinized with 80 μL of 0.1% formic acid in MeCN by shaking for 10 min (IKA Vibrax VXR, Germany) and then centrifuged for 5 min at a speed of 8000g (Eppendorf miniSpin centrifuge). The obtained supernatants were transferred into the autosampler vials. Chromatographic separation was carried out on an XBridge HILIC analytical column (2.1 × 150 mm^2, 3.5 μm, Waters, Ireland) with the oven temperature set at 25 °C using the Excion LC AC HPLC system. The autosampler temperature was maintained at 15 °C, and a sample volume of 2 μL was injected into the LC-MS/MS system. […] The tandem mass spectrometer was operated at unit resolution in the selected reaction monitoring mode (SRM), monitoring the transition of the protonated molecular ions m/z 104–87 and m/z 104–69 for GABA and m/z 148–84 and m/z 148–102 for glutamate (the first pair was used as a quantifier and the second for the identity verification—qualifier). For isotope-labeled GABA-d6 and glutamate-d5 monitored pairs were m/z 110–93 and m/z 153–88, respectively. […]
# [4] = system: AMPA; test: AMPA binding (agonist radioligand); settings: 100 μM, rat cerebral cortex
# Experimental: Binding/functional studies were carried out commercially in Eurofins Laboratories (Poitiers, France) and Eurofins Panlabs Discovery Services Taiwan, Ltd. (New Taipei City, Taiwan) using testing procedures that were reported previously (for details, see Table S2).
# Table S2. Radioligand binding and functional assays. […]
# AMPA (agonist radioligand) […]
# Potassium channel (hERG) […]
# Assays were performed commercially in Eurofins Laboratories ( Poitiers, France) or Eurofins Panlabs Discovery Services
# Taiwan, Ltd. (New Taipei City, Taiwan).
compound,measurement,setting,value
"CC(=O)NC(C)C(=O)N1CCN(c2cccc(OC(F)(F)F)c2)CC1 (stereo not shown) [Compound 28, N-(1-oxo-1-(4-(3-(Trifluoromethoxy)phenyl)piperazin-1-yl)propan-2-yl)acetamide]",decrease of total immobility duration in the forced swim test,"[1]; 10 and 20 mg/kg, vs PTZ-kindled control",~10%
same,locomotor activity and anxiety-related behavior,[1]; repeated administration,did not affect
same,percentage of fully kindled mice,[2]; 10 mg/kg i.p. every 24 h,71%
same,percentage of fully kindled mice,[2]; 20 mg/kg i.p. every 24 h,73%
same,percentage of fully kindled mice,[2]; 40 mg/kg i.p. every 24 h,47%
same,mean seizure severity score,[2]; after the first PTZ injection,1.00 ± 0.00
same,mean seizure severity score,[2]; after the last PTZ injection,3.40 ± 0.45
same,GABA concentrations in the cortex,[3]; PTZ-kindled animals vs PTZ-kindled control,did not affect GABA concentrations
same,cortical glutamate concentration (PTZ-kindling-induced decrease),"[3]; cortex, 28 at 40 mg/kg, VPA 150 mg/kg",reversed this effect
same,% inhibition of control specific binding,[4],–21.0%

# From paper PMC11157491, “Novel Alaninamide Derivatives with Drug-like Potential for Development as Antiseizure and Antinociceptive Therapies—In Vitro and In Vivo Characterization” (ACS Chemical Neuroscience, 2024)
